Entries after “also recorded” stand apart in the source; their conditions may differ. Like-named read-outs stand apart in the source and are kept apart here.
Experiments:
[1] = Vapor stress, RT
Excerpt: The sample was then centrifuged, while still warm, and the mother liquor was decanted. The isolated solids were air-dried and analyzed by XRPD.

[2] = for recrystallization of non-crystalline material upon heating (XRPD): heated at ~110° C. for 10 minutes
[3] = 93% RH, RT
[4] = Dynamic vapor sorption (DVS) with XRPD of the post-DVS sample; type: physicochemical; settings: for hygroscopicity based on DVS data: 5 to 95% RH; for moisture gain by DVS: adsorption 5 to 95% RH; for behaviour on desorption / form change by XRPD of post-DVS sample: desorption 95 to 5% RH
Outline: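 Sample (about 2-25 mg depending on run) held at 25° C. and stepped in 10% RH increments 5→95% RH (adsorption) then 95→5% RH (desorption). Each step advanced at 0.01% weight change (in 5 min for later runs) or after a maximum of 1 h or 90 min; percent weight change reported.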

[5] = 25° C., listed as Non-crystalline 2C-B tartrate
[6] = 25° C., listed as non-crystalline 2C-B tartrate

Structure (SMILES): COc1cc(CCN)c(OC)cc1Br.O=C(O)C(O)C(O)C(=O)O [non-crystalline 2C-B Tartrate, 4-bromo-2,5-dimethoxyphenethylamine (2C-B) tartrate]
- XRPD result after vapor stress ([1]; EtOH): Tartrate (Form 1)
- XRPD result after vapor stress ([1]; H2O): Tartrate (Form 1)
- XRPD result after vapor stress ([1]; acetone): Tartrate (Form 1)
- XRPD result after heat stress ([2]; 60° C., 9 d): NC + br pk (23°)
- XRPD result after heat stress ([2]; 110° C., 10 min.): Tartrate (Form 1) +
- recrystallization of non-crystalline material upon heating (XRPD) [2]: recrystallizes to Tartrate (Form 1) upon heating; also recorded: crystallized to 2C-B Tartrate (Form 1)
- recrystallization of non-crystalline material upon heating (XRPD) ([2]; listed as non-crystalline tartrate): crystallization to Tartrate (Form 1) was observed by XRPD
- XRPD result after humidity stress [3]: Tartrate (Form 1)
- hygroscopicity based on DVS data [4, 5]: hygroscopic
- hygroscopicity based on DVS data [4, 6]: hygroscopic
- moisture gain by DVS [4, 5]: 11.7%
- moisture gain by DVS [4, 6]: 11.7%
- moisture gain by DVS above 55% RH ([4]; above 55% RH): 9.7%
- behaviour on desorption / form change by XRPD of post-DVS sample ([4]; listed as Non-crystalline 2C-B tartrate): remained non-crystalline
- behaviour on desorption / form change by XRPD of post-DVS sample ([4]; listed as non-crystalline 2C-B tartrate): remains non-crystalline
- DVS desorption weight loss, 95-5% RH ([4]; desorption, 95-5% RH, 25° C.): 95-5% RH: 12.3% loss
- post-DVS XRPD ([4]; solids after DVS cycle, NC = non-crystalline, br pk = broad peak): NC + br pk (25°)
- DVS sorption, weight gain 5-55% RH ([4]; sorption, 5-55% RH, 25° C.): 5-55% RH: 2.0% gain
- DVS sorption total gain ([4]; sorption, 5-95% RH, 25° C.): Total gain: 11.7%
- DVS sorption, weight gain 55-95% RH ([4]; sorption, 55-95% RH, 25° C.): 55-95% RH: 9.7% gain

— patent publication US20230150920A1, “SALTS AND SOLID FORMS OF 4-BROMO-2,5-DIMETHOXYPHENETHYLAMINE” (priority 2021, published 2023)
